In ChEMBL document CHEMBL3046559, “Sterile oat (Avena sterilis L.) cross-resistance profile to ACCase-inhibiting herbicides in Greece” (2012):

Key:
Assay type in all cases: functional
Avena sterilis [1] = assay: Herbicidal activity against Avena sterilis accession P21S assessed as weed survival at 1/32 times field recommended herbicide dose
Avena sterilis [2] = assay: Herbicidal activity against Avena sterilis accession P21S assessed as induction of weed mortality
Avena sterilis [3] = assay: Herbicidal activity against Avena sterilis accession P18 assessed as weed survival at 16 times field recommended herbicide dose
Avena sterilis [4] = assay: Herbicidal activity against Avena sterilis accession P22 assessed as weed survival at 1 times field recommended herbicide dose
Avena sterilis [5] = assay: Herbicidal activity against Avena sterilis accession P15 assessed as weed survival at 1 times field recommended herbicide dose
Avena sterilis [6] = assay: Herbicidal activity against Avena sterilis accession P17 assessed as weed survival at 16 times field recommended herbicide dose
Avena sterilis [7] = assay: Herbicidal activity against Avena sterilis accession P10S assessed as weed survival at 1/8 times field recommended herbicide dose
Avena sterilis [8] = assay: Herbicidal activity against Avena sterilis accession P02 assessed as weed survival at 8 times field recommended herbicide dose
Avena sterilis [9] = assay: Herbicidal activity against Avena sterilis accession P07 assessed as weed survival at 16 times field recommended herbicide dose
Avena sterilis [10] = assay: Herbicidal activity against Avena sterilis accession P22 assessed as weed survival at 32 times field recommended herbicide dose
Avena sterilis [11] = assay: Herbicidal activity against Avena sterilis accession P11 assessed as weed survival at 16 times field recommended herbicide dose
Avena sterilis [12] = assay: Herbicidal activity against Avena sterilis accession P14 assessed as weed survival at 1 times field recommended herbicide dose
Avena sterilis [13] = assay: Herbicidal activity against Avena sterilis accession P08 assessed as weed survival at 32 times field recommended herbicide dose
Avena sterilis [14] = assay: Herbicidal activity against Avena sterilis accession P13S assessed as induction of weed mortality
Avena sterilis [15] = assay: Herbicidal activity against Avena sterilis accession P18 assessed as weed survival at 32 times field recommended herbicide dose
Avena sterilis [16] = assay: Herbicidal activity against Avena sterilis accession P06S assessed as weed survival at 1/8 times field recommended herbicide dose
Avena sterilis [17] = assay: Herbicidal activity against Avena sterilis accession P11 assessed as weed survival at 32 times field recommended herbicide dose
Avena sterilis [18] = assay: Herbicidal activity against Avena sterilis accession P02 assessed as weed survival at 4 times field recommended herbicide dose
Avena sterilis [19] = assay: Herbicidal activity against Avena sterilis accession P01 assessed as induction of weed mortality
Avena sterilis [20] = assay: Herbicidal activity against Avena sterilis accession P17 assessed as weed survival at 8 times field recommended herbicide dose
Avena sterilis [21] = assay: Herbicidal activity against Avena sterilis accession P20 assessed as weed survival at 4 times field recommended herbicide dose
Avena sterilis [22] = assay: Herbicidal activity against Avena sterilis accession P02 assessed as weed survival at 16 times field recommended herbicide dose
Avena sterilis [23] = assay: Herbicidal activity against Avena sterilis accession P06S assessed as weed survival at 1 times field recommended herbicide dose
Avena sterilis [24] = assay: Herbicidal activity against Avena sterilis accession P20 assessed as weed survival at 32 times field recommended herbicide dose
Avena sterilis [25] = assay: Herbicidal activity against Avena sterilis accession P03 assessed as weed survival at 32 times field recommended herbicide dose
Avena sterilis [26] = assay: Herbicidal activity against Avena sterilis accession P11 assessed as weed survival at 4 times field recommended herbicide dose
Avena sterilis [27] = assay: Herbicidal activity against Avena sterilis accession P19S assessed as weed survival at 1/8 times field recommended herbicide dose
Avena sterilis [28] = assay: Herbicidal activity against Avena sterilis accession P17 assessed as weed survival at 4 times field recommended herbicide dose
Avena sterilis [29] = assay: Herbicidal activity against Avena sterilis accession P03 assessed as weed survival at 16 times field recommended herbicide dose
Avena sterilis [30] = assay: Herbicidal activity against Avena sterilis accession P18 assessed as weed survival at 4 times field recommended herbicide dose
Avena sterilis [31] = assay: Herbicidal activity against Avena sterilis accession P04 assessed as induction of weed mortality
Avena sterilis [32] = assay: Herbicidal activity against Avena sterilis accession P01 assessed as weed survival at 1 times field recommended herbicide dose
Avena sterilis [33] = assay: Herbicidal activity against Avena sterilis accession P08 assessed as weed survival at 16 times field recommended herbicide dose
Avena sterilis [34] = assay: Herbicidal activity against Avena sterilis accession P01 assessed as weed survival at 16 times field recommended herbicide dose
Avena sterilis [35] = assay: Herbicidal activity against Avena sterilis accession P11 assessed as induction of weed mortality
Avena sterilis [36] = assay: Herbicidal activity against Avena sterilis accession P16 assessed as weed survival at 8 times field recommended herbicide dose
Avena sterilis [37] = assay: Herbicidal activity against Avena sterilis accession P11 assessed as weed survival at 8 times field recommended herbicide dose
Avena sterilis [38] = assay: Herbicidal activity against Avena sterilis accession P01 assessed as weed survival at 32 times field recommended herbicide dose
Avena sterilis [39] = assay: Herbicidal activity against Avena sterilis accession P22 assessed as induction of weed mortality
Avena sterilis [40] = assay: Herbicidal activity against Avena sterilis accession P19S assessed as induction of weed mortality
Avena sterilis [41] = assay: Herbicidal activity against Avena sterilis accession P21S assessed as weed survival at 1/8 times field recommended herbicide dose
Avena sterilis [42] = assay: Herbicidal activity against Avena sterilis accession P15 assessed as weed survival at 8 times field recommended herbicide dose
Avena sterilis [43] = assay: Herbicidal activity against Avena sterilis accession P16 assessed as weed survival at 32 times field recommended herbicide dose
Avena sterilis [44] = assay: Herbicidal activity against Avena sterilis accession P05 assessed as weed survival at 16 times field recommended herbicide dose
Avena sterilis [45] = assay: Herbicidal activity against Avena sterilis accession P15 assessed as weed survival at 4 times field recommended herbicide dose
Avena sterilis [46] = assay: Herbicidal activity against Avena sterilis accession P08 assessed as weed survival at 8 times field recommended herbicide dose
Avena sterilis [47] = assay: Herbicidal activity against Avena sterilis accession P11 assessed as weed survival at 1 times field recommended herbicide dose
Avena sterilis [48] = assay: Herbicidal activity against Avena sterilis accession P21S assessed as weed survival at 1/4 times field recommended herbicide dose
Avena sterilis [49] = assay: Herbicidal activity against Avena sterilis accession P17 assessed as weed survival at 1 times field recommended herbicide dose
Avena sterilis [50] = assay: Herbicidal activity against Avena sterilis accession P06S assessed as weed survival at 1/32 times field recommended herbicide dose
Avena sterilis [51] = assay: Herbicidal activity against Avena sterilis accession P05 assessed as induction of weed mortality
Avena sterilis [52] = assay: Herbicidal activity against Avena sterilis accession P02 assessed as weed survival at 1 times field recommended herbicide dose
Avena sterilis [53] = assay: Herbicidal activity against Avena sterilis accession P22 assessed as weed survival at 16 times field recommended herbicide dose
Avena sterilis [54] = assay: Herbicidal activity against Avena sterilis accession P13S assessed as weed survival at 1/16 times field recommended herbicide dose
Avena sterilis [55] = assay: Herbicidal activity against Avena sterilis accession P09 assessed as weed survival at 4 times field recommended herbicide dose
Avena sterilis [56] = assay: Herbicidal activity against Avena sterilis accession P16 assessed as weed survival at 4 times field recommended herbicide dose
Avena sterilis [57] = assay: Herbicidal activity against Avena sterilis accession P08 assessed as induction of weed mortality
Avena sterilis [58] = assay: Herbicidal activity against Avena sterilis accession P18 assessed as weed survival at 1 times field recommended herbicide dose

COC(=O)C(C)Oc1ccc(Oc2ccc(Cl)cc2Cl)cc1 (stereo unspecified) [DICLOFOP-METHYL]
Survival (Avena sterilis [1]): 100%
GR50 (Avena sterilis [2]): 418 gAi/ha
Survival (Avena sterilis [3]): 40%
Survival (Avena sterilis [4]): 97%
Survival (Avena sterilis [5]): 100%
Survival (Avena sterilis [6]): 43%
Survival (Avena sterilis [7]): 97%
Survival (Avena sterilis [8]): 80%
Survival (Avena sterilis [9]): 20%
Survival (Avena sterilis [10]): 20%
Survival (Avena sterilis [11]): 70%
Survival (Avena sterilis [12]): 90%
Survival (Avena sterilis [13]): 33%
GR50 (Avena sterilis [14]): 509 gAi/ha
Survival (Avena sterilis [15]): 40%
Survival (Avena sterilis [16]): 90%
Survival (Avena sterilis [17]): 63%
Survival (Avena sterilis [18]): 97%
GR50 (Avena sterilis [19]): 21999 gAi/ha
Survival (Avena sterilis [20]): 60%
Survival (Avena sterilis [21]): 100%
Survival (Avena sterilis [22]): 70%
Survival (Avena sterilis [23]): 40%
Survival (Avena sterilis [24]): 70%
Survival (Avena sterilis [25]): 40%
Survival (Avena sterilis [26]): 90%
Survival (Avena sterilis [27]): 100%
Survival (Avena sterilis [28]): 80%
Survival (Avena sterilis [29]): 53%
Survival (Avena sterilis [30]): 80%
GR50 (Avena sterilis [31]): 14196 gAi/ha
Survival (Avena sterilis [32]): 90%
Survival (Avena sterilis [33]): 53%
Survival (Avena sterilis [34]): 60%
GR50 (Avena sterilis [35]): >22740 gAi/ha
Survival (Avena sterilis [36]): 53%
Survival (Avena sterilis [37]): 73%
Survival (Avena sterilis [38]): 50%
GR50 (Avena sterilis [39]): 3989 gAi/ha
GR50 (Avena sterilis [40]): 451 gAi/ha
Survival (Avena sterilis [41]): 97%
Survival (Avena sterilis [42]): 80%
Survival (Avena sterilis [43]): 20%
Survival (Avena sterilis [44]): 20%
Survival (Avena sterilis [45]): 100%
Survival (Avena sterilis [46]): 60%
Survival (Avena sterilis [47]): 100%
Survival (Avena sterilis [48]): 83%
Survival (Avena sterilis [49]): 93%
Survival (Avena sterilis [50]): 100%
GR50 (Avena sterilis [51]): 4859 gAi/ha
Survival (Avena sterilis [52]): 100%
Survival (Avena sterilis [53]): 27%
Survival (Avena sterilis [54]): 90%
Survival (Avena sterilis [55]): 80%
Survival (Avena sterilis [56]): 60%
GR50 (Avena sterilis [57]): 11354 gAi/ha
Survival (Avena sterilis [58]): 100%

CCOC(=O)[C@@H](C)Oc1ccc(Oc2nc3ccc(Cl)cc3o2)cc1 [FENOXAPROP-P-ETHYL]
Survival (Avena sterilis [1]): 97%
GR50 (Avena sterilis [2]): 18 gAi/ha
Survival (Avena sterilis [3]): 73%
Survival (Avena sterilis [4]): 87%
Survival (Avena sterilis [5]): 100%
Survival (Avena sterilis [6]): 20%
Survival (Avena sterilis [7]): 80%
Survival (Avena sterilis [8]): 93%
Survival (Avena sterilis [9]): 80%
Survival (Avena sterilis [10]): 0%
Survival (Avena sterilis [11]): 57%
Survival (Avena sterilis [12]): 57%
Survival (Avena sterilis [13]): 20%
GR50 (Avena sterilis [14]): 18 gAi/ha
Survival (Avena sterilis [15]): 60%
Survival (Avena sterilis [16]): 80%
Survival (Avena sterilis [17]): 50%
Survival (Avena sterilis [18]): 100%
GR50 (Avena sterilis [19]): 600 gAi/ha
Survival (Avena sterilis [20]): 20%
Survival (Avena sterilis [21]): 100%
Survival (Avena sterilis [22]): 67%
Survival (Avena sterilis [23]): 0%
Survival (Avena sterilis [24]): 53%
Survival (Avena sterilis [25]): 37%
Survival (Avena sterilis [26]): 83%
Survival (Avena sterilis [27]): 87%
Survival (Avena sterilis [28]): 40%
Survival (Avena sterilis [29]): 40%
Survival (Avena sterilis [30]): 97%
GR50 (Avena sterilis [31]): 913 gAi/ha
Survival (Avena sterilis [32]): 97%
Survival (Avena sterilis [33]): 30%
Survival (Avena sterilis [34]): 23%
GR50 (Avena sterilis [35]): 2261 gAi/ha
Survival (Avena sterilis [36]): 20%
Survival (Avena sterilis [37]): 77%
Survival (Avena sterilis [38]): 20%
GR50 (Avena sterilis [39]): 250 gAi/ha
GR50 (Avena sterilis [40]): 31 gAi/ha
Survival (Avena sterilis [41]): 80%
Survival (Avena sterilis [42]): 70%
Survival (Avena sterilis [43]): 0%
Survival (Avena sterilis [44]): 20%
Survival (Avena sterilis [45]): 100%
Survival (Avena sterilis [46]): 63%
Survival (Avena sterilis [47]): 97%
Survival (Avena sterilis [48]): 43%
Survival (Avena sterilis [49]): 97%
Survival (Avena sterilis [50]): 97%
GR50 (Avena sterilis [51]): 181 gAi/ha
Survival (Avena sterilis [52]): 100%
Survival (Avena sterilis [53]): 0%
Survival (Avena sterilis [54]): 80%
Survival (Avena sterilis [55]): 80%
Survival (Avena sterilis [56]): 90%
GR50 (Avena sterilis [57]): 854 gAi/ha
Survival (Avena sterilis [58]): 100%
